Tests used:
[1] = pKa (physiochemical properties); format: physicochemical
From the text: Table 1 Physiochemical properties of […] and […]. | column: […]; […]

[2] = Body weight change in multiday IP study; format: in vivo; conditions: IP 150 mpk BID, study spanning over 10 days, mice
[3] = Mouse PK of G7883, SC in sunflower oil; format: in vivo
Description: was screened in different oil vehicles including corn, coconut, paraffin, soybean, and sunflower oil. […] For subcutaneous administrations, […] was formulated in sunflower oil as a suspension and dosed at 250 mg/kg with a dosing volume of 5 mL/kg. Food and water were available ad libitum to animals. Blood samples were collected post-dose into tubes containing K2EDTA as an anticoagulant. Samples were taken from three different animals at each time point. After the blood was mixed with K2EDTA, the samples were stored at -80 °C until analysis. All plasma and cell media concentrations of […] and […] were determined using liquid chromatography-tandem mass spectrometry after protein precipitation with acetonitrile and injection of the supernatant onto the column (Waters ACQUITY UPLC BEH C18 1.7 μm, 2.1 × 50 mm for […] and […]). The aqueous mobile phase was 0.1% formic acid, 2 mM ammonium formate in water/acetonitrile (v:v, 95:5), and the organic mobile phase was 0.1% formic acid, 2 mM ammonium formate in acetonitrile/water (v:v, 95:5). An AB Sciex API 4000 Triple Quad instrument was used for detecting […] and […] (Figure S2). The electrospray ionization source in both columns was operated in the positive ion and multiple reaction monitoring (MRM) detection modes. The MRM transitions for […] and […] were m/z 462.2 (Q1) and 253.10 (Q3) and m/z 454.2 (Q1) and 325.9 (Q3), respectively. The dynamic range of both assays was 0.50-50.0 ng/mL, and the total run time was 1.6 min. The lower limit of quantitation of the assay was […], and the dilution quality control concentration was set at 10 ng/mL with acceptance criteria for accuracy and precision of 25%. All plasma and cell media concentrations of […] were determined using liquid chromatography-tandem mass spectrometry after protein precipitation with acetonitrile and injection of the supernatant onto the column (Phenomenex Kinetex XB-C18, 30 × 2.1 mm, 2.6 μm). The aqueous mobile phase was 10 mM of ammonium formate in water, and the organic mobile phase was 0.1% formic acid in acetonitrile. An AB Sciex API 5500 Triple Quad instrument was used for detecting […]. The electrospray ionization source in both columns was operated in the positive ion and MRM detection modes. The MRM transitions for […] were m/z 462.2 (Q1) and 253.10 (Q3), respectively. The dynamic range of the assay was 0.50-50.0 ng/mL, and the total run time was 2 min. The lower limit of quantitation of the assay was […], and the dilution quality control concentration was set at 10 ng/mL with acceptance criteria for accuracy and precision of 25%.

TEAD = tested on: TEAD; design: method as in PMID 33679401; conditions: cellular assays; read-out: half-maximal inhibitory concentration (IC50) in cellular assays; cited from earlier work
[4] = SC 250 mpk sunflower oil compared with PO 250 mpk
[5] = plasma, 250 mg/kg, SC 250 mpk, sunflower oil suspension, mean ± SD

pKa [1]: 5.51
reduction of Cmax, SC versus IP ([3]; SC 250 mpk compared with IP 150 mpk): approximately 4 fold
half-life extension, SC versus PO [3, 4]: 2.5 fold
increase of AUC, SC oil formulation versus oral [3, 4]: more than 5 fold
F ([3]; SC 250 mpk, sunflower oil suspension, mean ± SD, 250 mg/kg): 46.4 ± 13.2%
AUC(0-t) [3, 5]: 137 ± 51.1 µM·h
Cmax [3, 5]: 16.7 ± 12 µM
Tmax [3, 5]: 2.67 ± 1.15 h
half-life [3, 5]: 6.94 ± 2.93 h
bioavailability ([3]; plasma, sc, 250 mg/kg, SC 250 mpk, sunflower oil suspension, mean ± SD): 46%
Compound: Cc1nccnc1-c1nn2c(=O)cc(-c3ccc(C4CCCCC4)cc3)[nH]c2c1C(=O)N1CC(CF)C1 [G7883, 5-(4-cyclohexylphenyl)-3-[3-(fluoromethyl)azetidine-1-carbonyl]-2-(3-methylpyrazin-2-yl)-4H-pyrazolo[1,5-a]pyrimidin-7-one]
body weight change [2]: significant decreases in the body weights of mice were observed
IC50 (TEAD): 1400 nM

Reference: paper PMC10892288, “Early Stage Preclinical Formulation Strategies to Alter the Pharmacokinetic Profile of Two Small Molecule Therapeutics” (Pharmaceuticals, 2024)
